According to patent publication US10106853B2, “CUL4B as predictive biomarker for cancer treatment” (CORNELL UNIVERSITY, priority 2012, dated 2018):
Where two headings read alike, the source gives them in different places.

Experiments:
BT474 xenograft tumors = format: in vivo, athymic Nu/J nude mice; settings: for Xenograft tumor growth under topotecan treatment: topotecan i.p. 5 mg/g every fourth day
Experimental: (§1) FIG. 5. CUL4B inactivation sensitized BT474 xenograft tumors to topotecan. Stable TGL-BT474 cells (BT474 cells stably expressing GFP-luciferase reporter) were established by retroviral transduction and FACS sorting. The resulting TGL-BT474 cells were infected with recombinant lentiviruses expressing non-targeting shCtrl, shCUL4A or shCUL4B, followed by selection of infected cells with 4 μg/ml puromycine for one week. A) Knockdown of endogenous CUL4A and 4B were verified by immunoblotting. B, C) 1×10^7 of control, CUL4A^k/d, or CUL4B^k/d TGL-BT474 cells were injected subcutaneously in the right flank of each athymic Nu/J nude mice, treated (i.p.) with toptoecan at a dose of 5 mg/g on every 4th day, and tumor burden was measure by bioluminescent imaging. Statistical significance in tumor burden between control and CUL4A^k/d or CUL4B^k/d xenograph are assessed by a two-tailed unpaired student t-test (***: p<0.001). D) Growth rate of control, CUL4A^k/d and CUL4B^k/d BT474 cells in vitro. The same number of control, CUL4A^k/d and CUL4B^k/d BT474 cells were seeded to 96-well plates and cell proliferation was measured using the XTT Cell Proliferation Assay Kit. The data represent the mean value of fold change of cells. Bars indicate the S.E. of six independent experiments. Statistical significance in cellular rate between control cells and CUL4A^k/d or CUL4B^k/d cells are assessed by student's t-test. E-F) Growth rate of control, CUL4A^k/d and CUL4B^k/d TGL-BT474 xenograft in vivo. 1×10^7 of control, CUL4A^k/d or CUL4B^k/d TGL-BT474 cells were injected subcutaneously in the right flank of each mouse of athymic Nu/J nude mice, and tumor burden was measured by bioluminescent imaging (E). On the 22nd day, tumors were collected, and the weight of exercised tumors was measured after mice were sacrificed (F).
The effect of CUL4B knockdown on an organism's response to CPT treatment was tested in vivo by examining the sensitivity of BT474-CUL4B^k/d, BT474-CUL4A^k/d and control BT474 xenograft tumors to topotecan treatment. Topotecan, (S)-10-[(dimethylamino)methyl]-4-ethyl-4,9-dihydroxy-1H-pyrano[3′,4′:6,7]indolizino[1,2-b]quinoline-3,14(4H,12H)-dione monohydrochloride, is an FDA-approved Top1-directed chemotherapy for the treatment of ovarian, cervical and small cell lung cancer, under the trade name Hycamtin™. Nude mice bearing BT474 xenografts on dorsal skin were treated with topotecan every four (4) days for a period of 44 days. Prior to topotecan administration, the size of the xenograft tumors were identical (FIG. 5). Topotecan was then administered via intraperitoneal injection, and tumor mass was monitors by bioluminescent imaging in four day intervals. […] To rule out the possibility that the growth rate of xenografts were altered during the CUL4B inactivation process (treatment with shRNA) the tumor mass of the three xenograft groups were measured in the absence of topotecan treatment and the weight of the exercised xenograft tumors were analyzed.
Six week old Female athymic Nu/J nude mice were purchased from Jackson Labs. Mice were housed in laminar air-flow cabinets under specific pathogen-free conditions. Nude mice were inoculated with 0.36 mg 60-day-release 17-b-estradiol pellets (Innovative Research) 24 to 48 hours before implantation of BT-474 cells. 1×10^7 BT-474 cells in 50 ul DMEM medium and 300 ul diluted BD Matrigel™ Basement Membrane Matrix (BD Bioscience, Matrix: PBS is 2:1) were injected subcutaneously in the right flank of each mouse. Tumors were detected once every four days by an IVIS Imaging System (Caliper Life Sciences). When tumors were available to be detected, mice were initially treated with topotecan. Topotecan was administered intraperitoneally on every fourth day from the initiation of therapy at doses of 5 mg/g.
The IVIS Imaging System (Caliper life sciences) was used for bioluminescent image acquisition and analysis. […]

Top1 = biological target: T1, Top1 (Homo sapiens, UniProt P11387); assay: CPT-induced TOP1 down regulation assay (immunoblotting); format: cell-based; settings: BT474 cells, lentiviral shRNA; CPT 50 μM, 1 to 1.5 hr
T1 construct: CPT-induced TOP1 degradation in breast cancer cell lines; host or cells: human breast cancer cell lines BT474, BT20, MCF-7, MDA-MB-231, T47D, Sk-Br-3 (MCF-10A as control)
T1 sequence (P11387 1-765): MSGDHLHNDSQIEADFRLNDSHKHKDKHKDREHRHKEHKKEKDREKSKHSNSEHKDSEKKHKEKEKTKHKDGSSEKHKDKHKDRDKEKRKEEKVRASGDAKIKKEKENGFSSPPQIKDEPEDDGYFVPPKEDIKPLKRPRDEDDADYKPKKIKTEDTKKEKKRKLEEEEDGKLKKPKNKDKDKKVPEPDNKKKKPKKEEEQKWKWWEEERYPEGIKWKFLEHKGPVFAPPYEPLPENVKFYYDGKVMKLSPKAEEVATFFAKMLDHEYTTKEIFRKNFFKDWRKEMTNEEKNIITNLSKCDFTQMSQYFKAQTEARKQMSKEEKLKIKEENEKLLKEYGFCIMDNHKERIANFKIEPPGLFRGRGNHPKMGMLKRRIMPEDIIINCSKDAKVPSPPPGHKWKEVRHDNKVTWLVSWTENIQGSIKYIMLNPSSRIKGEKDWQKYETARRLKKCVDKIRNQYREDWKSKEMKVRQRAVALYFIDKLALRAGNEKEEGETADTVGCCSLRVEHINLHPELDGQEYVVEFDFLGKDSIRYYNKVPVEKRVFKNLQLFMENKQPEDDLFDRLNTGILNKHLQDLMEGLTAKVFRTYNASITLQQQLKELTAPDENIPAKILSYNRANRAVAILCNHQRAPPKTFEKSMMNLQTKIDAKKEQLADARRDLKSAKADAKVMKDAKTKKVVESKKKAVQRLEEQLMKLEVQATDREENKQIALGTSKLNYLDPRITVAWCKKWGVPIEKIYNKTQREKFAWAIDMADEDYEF
Experimental: FIG. 1. CPT-induced TOP1 degradation in breast cancer cell lines. A) Expression of endogenous CUL4A and 4B in breast cancer cell lines. Total cell lysates were prepared from the indicated breast cancer cell lines and subjected to SDS PAGE and immunoblotting with antibodies against CUL4A, 4B and α-tubulin. The non-cancerous MCF-10A cell line was used as a control for comparison. B) CPT-induced TOP1 degradation in breast cancer cell lines. Cells were treated with 12.5 μM CPT or 1% DMSO for 4 hours, replenished with CPT-free fresh medium and incubated at 37° C. for 30 minutes to reverse the formation of TOP1 cleavable complex. Cells were then lysed and immunoblotted with the TOP1 and α-tubulin antibodies.
FIG. 2. CUL4B interacted with Top1 and induced Top1 degradation in the presence of CPT. A) Knockdown of CUL4B impaired CPT-induced Top1 degradation. BT474 cells were infected with lentiviral shCUL4B, shCUL4A or control non-targeting shRNA, and selected for stable CUL4B^k/d or CUL4A^k/d cells upon treatment with puromycin. Following treatment with CPT (50 μM) for 1 hour, cells were replenished with CPT-free fresh medium and incubated at 37° C. for 30 minutes. Top1 degradation was assessed by immunoblotting with an anti-Top1 antibody. Levels of α-tubulin were measured as a loading control. B) Association of CUL4B with Top1 following CPT treatment. BT474 cells were treated with proteosome inhibitor MG132 (15 μM) for 3 hours, and were subjected to crosslinking with 0.2 mM Dithiobis[succinimidyl propionate](DSP) for the last 30 min at room temperature. Cell lysates were prepared, and immunoprecipitated with the anti-Top1 or anti-CUL4B antibodies, and then immunoblotted using antibodies against CUL4B or Top1, respectively. IgG immunoprecipitates served as the negative control. C) Knockdown of CUL4B using a second shCUL4B-2 impaired CPT-induced Top1 degradation. BT474 cells were infected with lentiviral shCUL4B-2, shCUL4A-2 or control non-targeting shRNA and selected for stable CUL4B^k/d or CUL4A^k/d cells upon treatment with puromycin. Following treatment with CPT (50 μM) for 1.5 hr, cells were replenished with CPT-free fresh medium and incubated at 37° C. for 30 min. Top1 degradation was assessed by immunoblotting with the anti-Top1 antibody. Levels of α-tubulin were measured as a loading control. D) CUL4B inactivation sensitized BT474 cells to cytotoxic killing by camptothecin. BT474, BT474-CUL4A^k/d or BT474-CUL4B^k/d cells were synchronized with 1 μM nocodazole for 13 hours released in fresh medium, treated with the indicated concentrations of CPT for three days, and subjected to the XTT assay to measure the cytotoxic responses to CPT. […] The bars indicate the S.E. of six independent experiments. Statistical significance in cellular response to CPT between control BT474 cells and CUL4A^k/d or CUL4B^k/d cells were assessed by a two-tailed unpaired student t-test (***: p<0.001). The same results were obtained with a second lentiviral shRNA for CUL4A and CUL4B, as well as in T47D breast cancer cells. E, F) Knockdown of CUL4B increased the sensitivity of T47D cells to camptothecin. […] Statistical significance in cellular response to camptothecin between control cells and CUL4A^k/d or CUL4B^k/d BT474 cells are assessed by student's t-test.
CPT-induced Top1 degradation was monitored by immunoblotting of the alkaline lysates. […]

BT474 cells = assay: XTT Cell Proliferation Assay, growth rate of BT474 cells in vitro; format: cell-based, Human; settings: knockdown cells vs control, no drug
Experimental: as §1, with “B, C) 1×10^7 of control, CUL4A^k/d, or CUL4B^k/d TGL-BT474 cells were injected subcutaneously in the right flank of each athymic Nu/J nude mice, treated (i.p.) with toptoecan at a dose of 5 mg/g on every 4th day, and tumor burden was measure by bioluminescent imaging.” left out, “D) Growth rate of control, CUL4A^k/d and CUL4B^k/d BT474 cells in vitro.” left out, “The data represent the mean value of fold change of cells. Bars indicate the S.E. of six independent experiments.” left out, “E-F) Growth rate of control, CUL4A^k/d and CUL4B^k/d TGL-BT474 xenograft in vivo.” left out

With `CC[C@@]1(O)C(=O)OCc2c1cc1n(c2=O)Cc2cc3c(CN(C)C)c(O)ccc3nc2-1.Cl` [topotecan, (S)-10-[(dimethylamino)methyl]-4-ethyl-4,9-dihydroxy-1H-pyrano[3′,4′:6,7]indolizino[1,2-b]quinoline-3,14(4H,12H)-dione monohydrochloride] the “Xenograft tumor growth under topotecan treatment” value (“Xenograft tumor growth” below) (BT474 xenograft tumors; BT474-CUL4A k/d xenografts, 44 days) was “continue to grow”, the “Xenograft tumor growth” value (BT474 xenograft tumors; BT474-CUL4B k/d xenografts vs control and CUL4A k/d groups (p<0.001)) was “largely attenuated” and the “Xenograft tumor growth” value (BT474 xenograft tumors; control BT474 xenografts, 44 days) was “continue to grow”. The “Size of control and shCUL4A xenografts relative to shCUL4B xenografts” value (BT474 xenograft tumors; final day of topotecan treatment) was 5 fold and the “Detection of xenografts by bioluminescent imaging” value (BT474 xenograft tumors; several shCUL4B xenografts, final day of topotecan treatment) was “not detectable”.
“shCUL4B-2: second lentiviral shRNA CUL4B sequence purchased from Sigma Aldrich (CCGGGCAATTCTTCAGAAAGGTTTACTCGAGTAAACCTTTCTGAAGAATTGCTTTTT)” was tested, and the “Effect of shRNA knockdown on CPT-induced Top1 degradation” value (Top1) was “impaired”.
With “shCUL4A: lentiviral shRNA CUL4A sequence purchased from Sigma Aldrich (CCGGGCAGAACTGATCGCAAAGCATCTCGAGATGCTTTGCGATCAGTTCTGCTTTTT)” the “Growth rate of cultured BT474 cells in vitro” value (BT474 cells) was “reduced the growth rate slightly” and the “Growth rate of xenografts vs control” value (BT474 xenograft tumors; without topotecan administration, tumor burden and excised tumor weight) was “no significant difference”.
